# Measured values: ChEMBL document CHEMBL1140814 (Bioorg Med Chem Lett, 2008)
# System: not listed separately
# Assay: Antagonist activity at muscarinic M1 receptor in rabbit vas deferens up to 10 uM
# Type: functional, Oryctolagus cuniculus
row,SMILES,pD2
1,C[C@@H]1COC[C@H](C[N+](C)(C)C)O1.[I-],<5

# Target: T1, Muscarinic acetylcholine receptor M4 (Homo sapiens, UniProt P08173)
# T1 sequence (P08173 whole entry): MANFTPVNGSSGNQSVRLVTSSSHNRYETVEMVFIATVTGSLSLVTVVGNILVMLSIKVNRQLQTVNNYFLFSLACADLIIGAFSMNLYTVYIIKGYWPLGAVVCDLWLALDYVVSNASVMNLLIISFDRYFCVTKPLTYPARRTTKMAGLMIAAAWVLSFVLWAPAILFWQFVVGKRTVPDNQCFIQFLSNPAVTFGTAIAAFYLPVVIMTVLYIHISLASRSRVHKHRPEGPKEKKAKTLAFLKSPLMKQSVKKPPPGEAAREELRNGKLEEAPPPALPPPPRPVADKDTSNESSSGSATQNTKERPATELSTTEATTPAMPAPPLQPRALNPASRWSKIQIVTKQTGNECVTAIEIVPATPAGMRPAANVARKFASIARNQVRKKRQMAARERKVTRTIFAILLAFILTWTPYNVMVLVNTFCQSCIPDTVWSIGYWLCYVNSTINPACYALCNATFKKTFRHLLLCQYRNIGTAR
# Assay: Displacement of [3H]NMS from human cloned muscarinic M4 receptor expressed in CHO cells
# Type: cell-based
row,SMILES,Ki
1,C[C@@H]1COC[C@H](C[N+](C)(C)C)O1.[I-],69.2 µM
2,C[C@H]1COC[C@@H](C[N+](C)(C)C)O1.[I-],9.77 µM
3,CC1COCC(C[N+](C)(C)C)O1.[I-] (racemic; form 1),11.5 µM
4,CC1COCC(C[N+](C)(C)C)O1.[I-] (racemic; form 2),87.1 µM
5,C[C@H]1COC[C@H](C[N+](C)(C)C)O1.[I-],45.7 µM
6,C[C@@H]1COC[C@@H](C[N+](C)(C)C)O1.[I-],> 100 µM

# Target: T2, Muscarinic acetylcholine receptor M5 (Homo sapiens, UniProt P08912)
# T2 sequence (P08912 whole entry): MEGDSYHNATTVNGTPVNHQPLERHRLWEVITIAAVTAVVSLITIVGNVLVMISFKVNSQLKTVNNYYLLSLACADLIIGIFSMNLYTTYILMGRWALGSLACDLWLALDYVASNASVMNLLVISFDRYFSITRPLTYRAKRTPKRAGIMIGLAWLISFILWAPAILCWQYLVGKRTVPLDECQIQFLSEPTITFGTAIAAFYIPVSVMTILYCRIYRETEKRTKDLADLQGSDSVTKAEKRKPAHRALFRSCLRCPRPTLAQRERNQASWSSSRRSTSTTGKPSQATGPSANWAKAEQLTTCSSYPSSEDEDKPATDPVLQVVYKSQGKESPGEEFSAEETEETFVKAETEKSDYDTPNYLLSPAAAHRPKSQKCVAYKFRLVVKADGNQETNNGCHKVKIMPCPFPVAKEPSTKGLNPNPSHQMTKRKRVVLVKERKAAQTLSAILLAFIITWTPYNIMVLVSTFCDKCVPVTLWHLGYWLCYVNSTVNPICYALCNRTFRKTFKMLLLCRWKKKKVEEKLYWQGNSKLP
# Assay: Displacement of [3H]NMS from human cloned muscarinic M5 receptor expressed in CHO cells
# Type: cell-based
row,SMILES,Ki
1,C[C@@H]1COC[C@H](C[N+](C)(C)C)O1.[I-],44.7 µM
2,C[C@H]1COC[C@@H](C[N+](C)(C)C)O1.[I-],4.57 µM
3,CC1COCC(C[N+](C)(C)C)O1.[I-] (racemic; form 1),7.76 µM
4,CC1COCC(C[N+](C)(C)C)O1.[I-] (racemic; form 2),67.6 µM
5,C[C@@H]1COC[C@@H](C[N+](C)(C)C)O1.[I-],87.1 µM

# System: not listed separately
# Assay: Intrinsic activity at muscarinic M1 receptor in rabbit stimulated vas deferens assessed as ratio of agonist activity to activity of McN-A-343
# Type: functional, Oryctolagus cuniculus
SMILES,Intrinsic activity,pD2
C[C@H]1COC[C@@H](C[N+](C)(C)C)O1.[I-],1,6.78
CC1COCC(C[N+](C)(C)C)O1.[I-] (racemic; form 1),1,5.65
CC1COCC(C[N+](C)(C)C)O1.[I-] (racemic; form 2),,5.08

# System: not listed separately
# Assay: Intrinsic activity at muscarinic M4 receptor in guinea-pig lung strips assessed as ratio of agonist activity to activity of arecaidine propargyl ester
# Type: functional, Cavia porcellus
SMILES,Intrinsic activity,pD2
C[C@H]1COC[C@@H](C[N+](C)(C)C)O1.[I-],1,
C[C@H]1COC[C@H](C[N+](C)(C)C)O1.[I-],0.77,5.79
C[C@@H]1COC[C@@H](C[N+](C)(C)C)O1.[I-],0.42,5.22

# Target: Muscarinic acetylcholine receptor M3 (Cavia porcellus) (UniProt Q8VH26)
# Sequence (Q8VH26 1-587): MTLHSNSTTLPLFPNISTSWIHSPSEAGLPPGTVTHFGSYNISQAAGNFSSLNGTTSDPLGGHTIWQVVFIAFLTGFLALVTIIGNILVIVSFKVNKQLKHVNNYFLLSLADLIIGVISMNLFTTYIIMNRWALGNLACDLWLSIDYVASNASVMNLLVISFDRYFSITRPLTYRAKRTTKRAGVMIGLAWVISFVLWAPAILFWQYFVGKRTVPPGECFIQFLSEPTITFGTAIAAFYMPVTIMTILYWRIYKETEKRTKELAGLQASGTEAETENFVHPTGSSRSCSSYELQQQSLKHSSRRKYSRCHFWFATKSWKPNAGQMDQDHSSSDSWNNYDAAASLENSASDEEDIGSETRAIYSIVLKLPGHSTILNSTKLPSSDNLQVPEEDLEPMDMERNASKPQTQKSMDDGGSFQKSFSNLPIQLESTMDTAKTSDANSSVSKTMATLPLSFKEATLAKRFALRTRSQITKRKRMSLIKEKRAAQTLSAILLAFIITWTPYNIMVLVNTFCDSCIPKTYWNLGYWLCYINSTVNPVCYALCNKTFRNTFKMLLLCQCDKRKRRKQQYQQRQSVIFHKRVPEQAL
# Assay: Intrinsic activity at muscarinic M3 receptor in guinea-pig ileum assessed as ratio of agonist activity to activity of arecaidine propargyl ester
# Type: functional, tissue-based
SMILES,pD2,Intrinsic activity
CC1COCC(C[N+](C)(C)C)O1 (racemic; form 1),7.34,
C[C@@H]1COC[C@H](C[N+](C)(C)C)O1.[I-],6.53,
C[C@H]1COC[C@@H](C[N+](C)(C)C)O1.[I-],7.65,
CC1OC(C[N+](C)(C)C)CC1O (racemic),7.29,1
C[C@H]1COC[C@H](C[N+](C)(C)C)O1.[I-],6.26,
C[C@@H]1COC[C@@H](C[N+](C)(C)C)O1.[I-],4.54,

# Target: T3, Muscarinic acetylcholine receptor M2 (Homo sapiens, UniProt P08172)
# T3 sequence (P08172 whole entry): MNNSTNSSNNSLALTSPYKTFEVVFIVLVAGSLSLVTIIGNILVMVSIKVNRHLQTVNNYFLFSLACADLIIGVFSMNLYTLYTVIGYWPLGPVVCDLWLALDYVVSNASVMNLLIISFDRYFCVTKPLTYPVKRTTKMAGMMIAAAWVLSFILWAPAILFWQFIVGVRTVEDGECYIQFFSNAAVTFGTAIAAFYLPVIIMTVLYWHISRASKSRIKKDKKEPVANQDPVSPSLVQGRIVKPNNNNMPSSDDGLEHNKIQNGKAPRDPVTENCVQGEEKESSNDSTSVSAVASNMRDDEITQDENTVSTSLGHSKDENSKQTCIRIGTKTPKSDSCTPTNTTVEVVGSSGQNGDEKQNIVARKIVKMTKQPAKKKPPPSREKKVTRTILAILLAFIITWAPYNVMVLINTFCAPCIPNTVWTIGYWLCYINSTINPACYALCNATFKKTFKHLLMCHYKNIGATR
# Assay: Displacement of [3H]NMS from human cloned muscarinic M2 receptor expressed in CHO cells
# Type: cell-based
row,SMILES,Ki
1,C[C@@H]1COC[C@H](C[N+](C)(C)C)O1.[I-],6.92 µM
2,C[C@H]1COC[C@@H](C[N+](C)(C)C)O1.[I-],1.26 µM
3,CC1COCC(C[N+](C)(C)C)O1.[I-] (racemic; form 1),2.09 µM
4,CC1COCC(C[N+](C)(C)C)O1.[I-] (racemic; form 2),4.9 µM
5,C[C@H]1COC[C@H](C[N+](C)(C)C)O1.[I-],5.25 µM
6,C[C@@H]1COC[C@@H](C[N+](C)(C)C)O1.[I-],61.7 µM

# System: not listed separately
# Assay: Intrinsic activity at muscarinic M2 receptor in guinea-pig stimulated left atria assessed as ratio of agonist activity to activity of arecaidine propargyl ester
# Type: functional, Cavia porcellus
SMILES,Intrinsic activity,pD2
C[C@@H]1COC[C@H](C[N+](C)(C)C)O1.[I-],1,
CC1COCC(C[N+](C)(C)C)O1.[I-] (racemic; form 1),1,
CC1OC(C[N+](C)(C)C)CC1O (racemic),1,6.72
C[C@H]1COC[C@H](C[N+](C)(C)C)O1.[I-],0.9,6.18
C[C@@H]1COC[C@@H](C[N+](C)(C)C)O1.[I-],0.62,5.27
